System: 454973-116-R2-J3-PDC spheroids, percent test/control viability
Test: Anticancer human tumor 454973-116-R2-J3-PDC patient-derived pancreatic carcinoma cell line growth inhibition [CLK]
Conditions: spheroids with HUVEC and MSC; for IC50: curve of first compound; for viability, T/C: stronger effect = lower value
How it was run: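 Multi-cell-type spheroids combined patient-derived tumor cells with HUVEC endothelial cells and human mesenchymal stem cells. Paired agents were dosed in half-log steps down from about clinical Cmax, or from 10 microM where Cmax was unknown.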

[1] = second compound 0.0316 µM, first compound 0.0316 µM
[2] = second compound 0.0316 µM, first compound 0.1 µM
[3] = second compound 0.0316 µM, first compound 0.316 µM
[4] = second compound 0.0316 µM, first compound 1 µM
[5] = second compound 0.0316 µM, first compound 3.16 µM
[6] = second compound 0.0316 µM, first compound 10 µM
[7] = second compound 0.1 µM, first compound 0.0316 µM
[8] = second compound 0.1 µM, first compound 0.1 µM
[9] = second compound 0.1 µM, first compound 0.316 µM
[10] = second compound 0.1 µM, first compound 1 µM
[11] = second compound 0.1 µM, first compound 3.16 µM
[12] = second compound 0.1 µM, first compound 10 µM
[13] = second compound 0.316 µM, first compound 0.0316 µM
[14] = second compound 0.316 µM, first compound 0.1 µM
[15] = second compound 0.316 µM, first compound 0.316 µM
[16] = second compound 0.316 µM, first compound 1 µM
[17] = second compound 0.316 µM, first compound 3.16 µM
[18] = second compound 0.316 µM, first compound 10 µM
[19] = second compound 1 µM, first compound 0.0316 µM
[20] = second compound 1 µM, first compound 0.1 µM
[21] = second compound 1 µM, first compound 0.316 µM
[22] = second compound 1 µM, first compound 1 µM
[23] = second compound 1 µM, first compound 3.16 µM
[24] = second compound 1 µM, first compound 10 µM
[25] = second compound 3.16 µM, first compound 0.0316 µM
[26] = second compound 3.16 µM, first compound 0.1 µM
[27] = second compound 3.16 µM, first compound 0.316 µM
[28] = second compound 3.16 µM, first compound 1 µM
[29] = second compound 3.16 µM, first compound 3.16 µM
[30] = second compound 3.16 µM, first compound 10 µM
[31] = second compound 10 µM, first compound 0.0316 µM
[32] = second compound 10 µM, first compound 0.1 µM
[33] = second compound 10 µM, first compound 0.316 µM
[34] = second compound 10 µM, first compound 1 µM
[35] = second compound 10 µM, first compound 3.16 µM
[36] = second compound 10 µM, first compound 10 µM
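Note: spheroids exposed to compounds for 7 days before readout.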

SMILES: CC1(C)CCC(CN2CCN(c3ccc(C(=O)NS(=O)(=O)c4ccc(NCC5CCOCC5)c([N+](=O)[O-])c4)c(Oc4cnc5[nH]ccc5c4)c3)CC2)=C(c2ccc(Cl)cc2)C1 + CN1CCN(c2cc(C(=O)Nc3cc4cc(-c5cnn(C)c5)ccc4cn3)ccn2)CC1
- IC50 (second compound 0.0316 µM): 7120 nM
- IC50 (second compound 0.1 µM): 5230 nM
- IC50 (second compound 0.316 µM): < 31.6 nM
- IC50 (second compound 1 µM): < 31.6 nM
- IC50 (second compound 3.16 µM): < 31.6 nM
- IC50 (second compound 10 µM): < 31.6 nM
- viability, T/C [1]: 99.1%
- viability, T/C [2]: 93.8%
- viability, T/C [3]: 96.2%
- viability, T/C [4]: 110%
- viability, T/C [5]: 105%
- viability, T/C [6]: 28.6%
- viability, T/C [7]: 80%
- viability, T/C [8]: 74.3%
- viability, T/C [9]: 69.3%
- viability, T/C [10]: 84%
- viability, T/C [11]: 72.7%
- viability, T/C [12]: 20.2%
- viability, T/C [13]: 1.7%
- viability, T/C [14]: 1.6%
- viability, T/C [15]: 2.41%
- viability, T/C [16]: 3.39%
- viability, T/C [17]: 0.47%
- viability, T/C [18]: 2.29%
- viability, T/C [19]: 0.12%
- viability, T/C [20]: 0.14%
- viability, T/C [21]: 0.18%
- viability, T/C [22]: 0.14%
- viability, T/C [23]: 0.16%
- viability, T/C [24]: 0.4%
- viability, T/C [25]: 0.18%
- viability, T/C [26]: 0.15%
- viability, T/C [27]: 0.18%
- viability, T/C [28]: 0.24%
- viability, T/C [29]: 0.61%
- viability, T/C [30]: 0.7%
- viability, T/C [31]: 0.14%
- viability, T/C [32]: 0.13%
- viability, T/C [33]: 0.21%
- viability, T/C [34]: 0.2%
- viability, T/C [35]: 0.15%
- viability, T/C [36]: 0.17%

SMILES: CC1COCCN1c1cc(C2(S(C)(=N)=O)CC2)nc(-c2ccnc3[nH]ccc23)n1 (stereo unspecified) + CN1CCN(c2cc(C(=O)Nc3cc4cc(-c5cnn(C)c5)ccc4cn3)ccn2)CC1
- IC50 (second compound 0.0316 µM): 7240 nM
- IC50 (second compound 0.1 µM): 4520 nM
- IC50 (second compound 0.316 µM): < 31.6 nM
- IC50 (second compound 1 µM): < 31.6 nM
- IC50 (second compound 3.16 µM): < 31.6 nM
- IC50 (second compound 10 µM): < 31.6 nM
- viability, T/C [1]: 97.4%
- viability, T/C [2]: 105%
- viability, T/C [3]: 96.2%
- viability, T/C [4]: 106%
- viability, T/C [5]: 83.3%
- viability, T/C [6]: 37.1%
- viability, T/C [7]: 73.4%
- viability, T/C [8]: 80.5%
- viability, T/C [9]: 91.4%
- viability, T/C [10]: 77.5%
- viability, T/C [11]: 62.9%
- viability, T/C [12]: 21.5%
- viability, T/C [13]: 1.53%
- viability, T/C [14]: 2.23%
- viability, T/C [15]: 1.84%
- viability, T/C [16]: 1.74%
- viability, T/C [17]: 1.04%
- viability, T/C [18]: 0.46%
- viability, T/C [19]: 0.13%
- viability, T/C [20]: 0.13%
- viability, T/C [21]: 0.16%
- viability, T/C [22]: 0.1%
- viability, T/C [23]: 0.11%
- viability, T/C [24]: 0.1%
- viability, T/C [25]: 0.17%
- viability, T/C [26]: 0.21%
- viability, T/C [27]: 0.22%
- viability, T/C [28]: 0.2%
- viability, T/C [29]: 0.15%
- viability, T/C [30]: 0.21%
- viability, T/C [31]: 1.56%
- viability, T/C [32]: 0.21%
- viability, T/C [33]: 0.22%
- viability, T/C [34]: 0.31%
- viability, T/C [35]: 0.25%
- viability, T/C [36]: 0.6%

SMILES: NC(=O)C(=Cn1cnc(-c2cc(C(F)(F)F)cc(C(F)(F)F)c2)n1)c1cncnc1 + CN1CCN(c2cc(C(=O)Nc3cc4cc(-c5cnn(C)c5)ccc4cn3)ccn2)CC1
- IC50 (second compound 0.0316 µM): 530 nM
- IC50 (second compound 0.1 µM): 167 nM
- IC50 (second compound 0.316 µM): < 9.49 nM
- IC50 (second compound 1 µM): < 9.49 nM
- IC50 (second compound 3.16 µM): < 9.49 nM
- IC50 (second compound 10 µM): < 9.49 nM
- viability, T/C (second compound 0.0316 µM, first compound 0.00949 µM): 93.1%
- viability, T/C (second compound 0.0316 µM, first compound 0.03 µM): 96.2%
- viability, T/C (second compound 0.0316 µM, first compound 0.0949 µM): 70.5%
- viability, T/C (second compound 0.0316 µM, first compound 0.3 µM): 65.9%
- viability, T/C (second compound 0.0316 µM, first compound 0.949 µM): 36.9%
- viability, T/C (second compound 0.0316 µM, first compound 3 µM): 9.03%
- viability, T/C (second compound 0.1 µM, first compound 0.00949 µM): 81.8%
- viability, T/C (second compound 0.1 µM, first compound 0.03 µM): 65.2%
- viability, T/C (second compound 0.1 µM, first compound 0.0949 µM): 62.8%
- viability, T/C (second compound 0.1 µM, first compound 0.3 µM): 41%
- viability, T/C (second compound 0.1 µM, first compound 0.949 µM): 20.2%
- viability, T/C (second compound 0.1 µM, first compound 3 µM): 2%
- viability, T/C (second compound 0.316 µM, first compound 0.00949 µM): 0.71%
- viability, T/C (second compound 0.316 µM, first compound 0.03 µM): 0.67%
- viability, T/C (second compound 0.316 µM, first compound 0.0949 µM): 0.65%
- viability, T/C (second compound 0.316 µM, first compound 0.3 µM): 0.1%
- viability, T/C (second compound 0.316 µM, first compound 0.949 µM): 0.08%
- viability, T/C (second compound 0.316 µM, first compound 3 µM): 0.11%
- viability, T/C (second compound 1 µM, first compound 0.00949 µM): 0.11%
- viability, T/C (second compound 1 µM, first compound 0.03 µM): 0.15%
- viability, T/C (second compound 1 µM, first compound 0.0949 µM): 1.14%
- viability, T/C (second compound 1 µM, first compound 0.3 µM): 0.08%
- viability, T/C (second compound 1 µM, first compound 0.949 µM): 0.08%
- viability, T/C (second compound 1 µM, first compound 3 µM): 0.06%
- viability, T/C (second compound 3.16 µM, first compound 0.00949 µM): 0.08%
- viability, T/C (second compound 3.16 µM, first compound 0.03 µM): 0.28%
- viability, T/C (second compound 3.16 µM, first compound 0.0949 µM): 0.13%
- viability, T/C (second compound 3.16 µM, first compound 0.3 µM): 0.13%
- viability, T/C (second compound 3.16 µM, first compound 0.949 µM): 0.1%
- viability, T/C (second compound 3.16 µM, first compound 3 µM): 0.72%
- viability, T/C (second compound 10 µM, first compound 0.00949 µM): 1.5%
- viability, T/C (second compound 10 µM, first compound 0.03 µM): 0.12%
- viability, T/C (second compound 10 µM, first compound 0.0949 µM): 0.2%
- viability, T/C (second compound 10 µM, first compound 0.3 µM): 0.2%
- viability, T/C (second compound 10 µM, first compound 0.949 µM): 0.22%
- viability, T/C (second compound 10 µM, first compound 3 µM): 0.23%

Source: PubChem BioAssay AID2060618 (Molecular Pharmacology Branch, DTP, NCI, 2025)
